# Reference: paper PMC5343874, “High Specific Selectivity and Membrane-Active Mechanism of Synthetic Cationic Hybrid Antimicrobial Peptides Based on the Peptide FV7” (International Journal of Molecular Sciences, 2017)
# No end group written: not given here.
# Legend:
# [1] = tested on: human red blood cells (hRBC); assay: Hemolytic activity; type: cell-based; details: 37 °C; for concentration causing 5% hemolysis (minimal hemolytic concentration, MHC): fresh human erythrocytes in PBS pH 7.4, 1 h, absorbance 570 nm, maximal concentration 128 µM, averages of three independent experiments
# Method: The hemolytic activity of the peptides was evaluated by measuring the amount of released hemoglobin by the lysis of erythrocytes. The measurement was as previously described. Human red blood cells (hRBC) were obtained from healthy donors by the ethics committee of the Northeast Agricultural University Hospital. The fresh blood cells were washed 2–3 times in PBS (pH 7.4) and centrifuged at 1000× g for 5 min at 4 °C, then resuspended in PBS. Briefly, 50 μL of hRBC solution was incubated with 50 μL of different concentrations of each peptide dissolved in PBS in a 96-well microtiter plate. After incubation for 1 h at 37 °C, the mixtures were centrifuged at 1000× g for 5 min at 4 °C and then the supernatant was transferred to another 96-well microtiter plate. The release of hemoglobin was monitored by measurement of the absorbance at 570 nm using a multimode microplate reader (SpectraMax M5, Molecular Devices, San Francisco, CA, USA). The concentration causing 5% hemolysis was defined as the minimal hemolytic concentration (MHC). The control samples for 0% and 100% hemolysis consisted of hRBC in PBS (Ablank) only and in 0.1% Triton X-100 (Atriton), respectively. The percent hemolysis was calculated according to the following equation: % Hemolysis = [(Asample − Ablank)/(Atriton − Ablank)] × 100
# S. aureus ATCC 29213 [2] = type: cell-based, Staphylococcus aureus
# Method: (§1) Minimum inhibitory concentration (MIC) was determined using the modified standard microtiter dilution method as described previously. The bacteria were incubated overnight at 37 °C, […] at 220 rpm and transferred to new nutrient broth (MHB) until the logarithmic phase of growth. The bacteria were then diluted into 10^5 colony forming units (10^5 CFU/mL) in MHB. The peptides were dissolved and diluted in 0.01% acetic acid and 0.2% bovine serum albumin (BSA). Briefly, serial diluted (0.5–128 µM) peptides were added to sterile 96-well plates in a 50-μL volume of bacteria in MHB mixed with 50 µL. […] The results are expressed as an average of the MICs at least three times.
# (§2) E. coli ATCC 25,922, S. typhimurium ATCC 7731, S. typhimurium ATCC 14028, P. aeruginosa ATCC 27853, B. subtilis CMCC 63501, S. aureus ATCC 29213, S. epidermidis ATCC 12228 and E. faecalis ATCC 29212 were obtained from the College of Veterinary Medicine, Northeast Agricultural University (Harbin, China). E. coli UB1005 was kindly provided by Qingsheng Qi (State Key Laboratory of Microbial Technology, Shandong University, Jinan, China). P. Aeruginosa PAO1 was kindly provided by Wengong Yu (State Key Laboratory of School of Medicine and Pharmacy, Ocean University of China, Qingdao, China).
# [3] = tested on: S. typhimurium ATCC 14028; type: cell-based, Salmonella typhimurium
# Method: as §1, §2
# S. typhimurium ATCC 7731 = type: cell-based, Salmonella typhimurium
# Method: as §1, §2
# B. subtilis CMCC 63501 = type: cell-based, Bacillus subtilis
# Method: as §1, §2
# S. faecalis ATCC 29212 = type: cell-based
# Method: as §1, §2
# P. aeruginosa ATCC 27853 = type: cell-based, Pseudomonas aeruginosa
# Method: as §1, §2
# P. aeruginosa PAO1 = type: cell-based, Pseudomonas aeruginosa
# Method: as §1, §2
# S. epidermidis ATCC12228 = type: cell-based, Staphylococcus epidermidis
# Method: as §1, §2
# E. coli ATCC 25922 [4] = type: cell-based, Escherichia coli
# Method: as §1, §2
# E. coli UB 1005 = type: cell-based, Escherichia coli
# Method: as §1, §2
# S. aureus ATCC 29213 [5] = assay: Salt and heat sensitivity (MIC); type: cell-based, Staphylococcus aureus; design: key to MIC, FeCl3 / MIC, Mix / MIC, Control / MIC, NaCl / MIC, KCl / MIC, NH4Cl / MIC, MgCl2 / MIC, ZnCl2 / MIC, CaCl2: MIC in µM (peptide serial dilutions 0.5–128 µM); MIC, Heat (100 °C): unit not given beside the values
# Method: as §1
# (§3) The incubation to test for thermal stability occurred at 100 °C for 1 h. After these treatments, the procedures were the same as described above for the MIC assay.
# E. coli ATCC 25922 [6] = assay: Salt and heat sensitivity (MIC); type: cell-based, Escherichia coli; design: key to MIC, Control / MIC, NaCl / MIC, KCl / MIC, NH4Cl / MIC, MgCl2 / MIC, ZnCl2 / MIC, FeCl3 / MIC, CaCl2 / MIC, Mix: MIC in µM (peptide serial dilutions 0.5–128 µM); MIC, Heat (100 °C): unit not given beside the values
# Method: as §1, §3
# [7] = tested on: Gram-negative and Gram-positive bacteria; assay: MIC across the bacterial panel; type: cell-based
# Method: as §1, §2
# [8] = mixture medium with all salts in physiological concentrations
# [9] = peptide incubated at 100 °C for 1 h
Substance,MIC (S. aureus ATCC 29213 [2]) [µM],MIC [3] [µM],MIC (S. typhimurium ATCC 7731) [µM],MIC (B. subtilis CMCC 63501) [µM],MIC (S. faecalis ATCC 29212) [µM],MIC (P. aeruginosa ATCC 27853) [µM],MIC (P. aeruginosa PAO1) [µM],MIC (S. epidermidis ATCC12228) [µM],MIC (E. coli ATCC 25922 [4]) [µM],MIC (E. coli UB 1005) [µM],"concentration causing 5% hemolysis (minimal hemolytic concentration, MHC) [1] [µM]",other results
FRIRVRVAKKFGKAFVGEIM-NH2 [FV-MA],8,4,4,4,16,8,2,8,8,8,–,"hemolytic activity (in words) ([1]; human erythrocytes, 1 h, up to 128 µM): higher hemolytic activity at each concentration when compared to FV7"
FRIRVRVFKRIVQRIKDFLR-NH2 [FV-LL],2,2,2,4,4,4,2,1,1,4,> 128,–
FRIRVRVKWKLFKKI-NH2 [FV-CE],8,4,4,1,1,2,2,0.5,2,2,> 128,"MIC, FeCl3 (S. aureus ATCC 29213 [5]; 4 mM FeCl3): 4; MIC, Mix (S. aureus ATCC 29213 [5]; [8]): 4; MIC, Heat (100 °C) (S. aureus ATCC 29213 [5]; [9]): 4; MIC, MgCl2 (E. coli ATCC 25922 [6]; 1 mM MgCl2): 2; MIC, CaCl2 (E. coli ATCC 25922 [6]; 2.5 mM CaCl2): 2; MIC, FeCl3 (E. coli ATCC 25922 [6]; 4 mM FeCl3): 4; MIC, KCl (E. coli ATCC 25922 [6]; 4.5 mM KCl): 2; MIC, NH4Cl (E. coli ATCC 25922 [6]; 6 mM NH4Cl): 2; MIC, ZnCl2 (E. coli ATCC 25922 [6]; 8 mM ZnCl2): 2; MIC, NaCl (E. coli ATCC 25922 [6]; 150 mM NaCl): 2; MIC, Control (E. coli ATCC 25922 [6]; absence of physiological salts): 2; MIC, Mix (E. coli ATCC 25922 [6]; [8]): 2; MIC, Heat (100 °C) (E. coli ATCC 25922 [6]; [9]): 2"
KWKLFKKI-NH2 [CE],>64,>64,>64,>64,>64,>64,>64,>64,64,>64,–,minimum inhibitory concentration [7]: greater than 64 μM
